Results as given in ChEMBL document CHEMBL1129842, “ATP-sensitive potassium channel openers: Synthesis and antihypertensive activity of 4-bicyclyloxybenzopyrans” (1997).

What was measured:
[1] = system: Rattus norvegicus; test: Antihypertensive activity in spontaneously hypertensive rats (SHR''s) was evaluated after oral administration; ED50 mmHg; type: functional
[2] = system: Rattus norvegicus; test: Potassium channel opening activity is expressed as area under curve (AUC), determined in spontaneously hypertensive rats (SHR's) after oral administration; type: functional
[3] = Rattus norvegicus, po, read-out: ED50

Row | SMILES | ED50 [1, 3] | ECAUC0.2 [2] | ED50 [1]
1 | CN1N=C(O[C@@H]2c3cc(C#N)ccc3OC(C)(C)[C@@]2(C)O)[C@@H]2C[C@@H]2C1=O | 0.0023 mg/kg | 0.021 µM | –
2 | CN1N=C(N[C@@H]2c3cc(C#N)ccc3OC(C)(C)[C@H]2O)[C@@H]2C[C@@H]2C1=O | 0.0065 mg/kg | – | –
3 | Cn1nc(O[C@@H]2c3cc(C#N)ccc3OC(C)(C)[C@H]2O)ccc1=O | 0.0064 mg/kg | 0.16 µM | –
4 | CN1N=C(O[C@@H]2c3cc(C#N)ccc3OC(C)(C)[C@H]2O)C2C(C1=O)C2(C)C (mixture of isomers) | > 0.1 mg/kg | – | –
5 | CN1N=C(OC2c3ccc([N+](=O)[O-])cc3OC(C)(C)C2O)C2CC2C1=O (racemic) | > 0.3 mg/kg | – | –
6 | CN1N=C(OC2c3cc([N+](=O)[O-])ccc3OC(C)(C)C2O)C2CC2C1=O (racemic) | 0.049 mg/kg | – | –
7 | CN1N=C(OC2c3cc(C#N)ccc3OC(C)(C)C2(C)O)C2CC2C1=O (racemic) | 0.0042 mg/kg | – | –
8 | Cn1nc(OC2c3cc(C#N)ccc3OC(C)(C)C2O)ccc1=O (racemic) | 0.023 mg/kg | 0.25 µM | –
9 | Cn1nc(OC2c3cc(C#N)ccc3OC(C)(C)C2O)c2c(c1=O)CCC2 (racemic) | 0.86 mg/kg | – | –
10 | CN1N=C(O[C@@H]2c3cc(C(F)(F)C(F)(F)F)ccc3OC(C)(C)[C@H]2O)[C@@H]2C[C@@H]2C1=O (racemic) | 0.047 mg/kg | – | –
11 | Cn1nc(OC2c3cc(C#N)ccc3OC(C)(C)C2O)c2ccccc2c1=O (racemic) | > 10 mg/kg | – | –
12 | CC1(C)Oc2ccc(C#N)cc2C(N2CCCC2=O)C1O (racemic) [CROMAKALIM] | 0.31 mg/kg | 2.8 µM | –
13 | CN1N=C(OC2c3cc(C#N)ccc3OC(C)(C)C2O)C2CC2C1=O (racemic; form 1) | – | – | >1 mg/kg
14 | CN1N=C(OC2c3cc(C#N)ccc3OC(C)(C)C2O)C2CC2C1=O (racemic; form 2) | – | 0.39 µM | 0.047 mg/kg
15 | CN1N=C(O[C@@H]2c3cc(C#N)ccc3OC(C)(C)[C@H]2O)C2CC2C1=O (single isomer, unassigned; (-)) | 0.029 mg/kg | 0.18 µM | –
16 | CC1(C)Oc2ccc(C#N)cc2[C@@H](N2CCCC2=O)[C@@H]1O [LEVCROMAKALIM] | 0.14 mg/kg | 1.6 µM | –
